Measured values from PMC3185947 (British Journal of Cancer, 2011).
Where two headings read alike, the source gives them in different places.

Legend:
[1] = tested on: patients receiving erlotinib 150 mg per day; parameters: method as in earlier work; conditions: ref Shepherd et al, 2005, Perez-Soler and Van Cutsem, 2007; cited from earlier work
[2] = in vivo
From the text: (§1) PK parameters were estimated by non-compartmental methods (WinNonlin v.3.1, Pharsight Corp., Mountain View, CA, USA).

clinical = conditions: human, in vivo
From the text: as §1

[3] = tested on: patients with previously treated advanced NSCLC
Method: (§2) In the initial stage, we assessed the feasibility of intrapatient dose escalation from 150 mg per day to a maximal level of tolerable skin toxicity, which was defined as the TR. This objective was determined to be feasible if patients developed a TR in the absence of non-cutaneous dose-limiting toxicity (DLT). […] Skin toxicity was graded according to the following scale that was based on patient tolerability:
(§3) In the absence of both a TR and non-cutaneous DLT, the dose was increased in each patient to 200 mg per day, and then in 25 mg per day increments every 14 days. […] Toxicities were graded according to the National Cancer Institute Common Toxicity Criteria (NCI CTC), Version 2.0, except for skin toxicity.
Doses were reduced in 25 mg per day decrements for toxicity. The initial systemic intervention for symptomatic skin toxicity was minocycline 100–150 mg twice daily for at least 7 days, and the initiation of treatment with minocycline for symptomatic rash was at the discretion of the investigator.

[4] = tested on: previously treated patients with non-small cell lung cancer (NSCLC); conditions: cited from earlier work; for Median survival: ref Wacker et al, 2007
[5] = Plasma pharmacokinetics of erlotinib and OSI-420 (HPLC, non-compartmental); conditions: erlotinib dose 425 mg m^−2, 1 patient;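 note: pharmacokinetic parameters derived by non-compartmental analysis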
From the text: as §1

[6] = tested on: previously treated advanced non-small cell lung cancer (NSCLC)
Method: as §2, §3
Tumour assessments were performed using the Response Evaluation Criteria in Solid Tumours using computerised tomographic scanning or magnetic resonance imaging pretreatment and every 6–8 weeks during treatment ([Therasse et al, 2000]).

Structure (SMILES): C#Cc1cccc(Nc2ncnc3cc(OCCOC)c(OCCOC)cc23)c1 [erlotinib]
- Patients who developed NCI CTC grade 2 or 3 rash [1]: ~30%
- Relationships between dose and both AUC0–24 and Cmax (Spearman rank correlation) ([2]; human): did not reveal any significant deviation from dose proportionality
- Interpatient and intrapatient variability of PK [2]: High
- Cmax (clinical; 150 mg): 1910 ng/mL
- Tmax (clinical; 150 mg): 2 h
- Cmax (clinical; 200 mg): 2650 ng/mL
- Tmax (clinical; 200 mg): 2 h
- Cmax (clinical; 225 mg): 2540 ng/mL
- Tmax (clinical; 225 mg): 2 h
- Cmax (clinical; 250 mg): 2820 ng/mL
- Tmax (clinical; 250 mg): 2.1 h
- Cmax (clinical; 275 mg): 2190 ng/mL
- Tmax (clinical; 275 mg): 1 h
- Cmax (clinical; 300 mg): 2940 ng/mL
- Tmax (clinical; 300 mg): 2 h
- Cmax (clinical; 325 mg): 2800 ng/mL
- Cmax (clinical; 350 mg): 1780 ng/mL
- Tmax (clinical; 350 mg): 3.5 h
- Cmax (clinical; 375 mg): 2770 ng/mL
- Tmax (clinical; 375 mg): 1 h
- Tmax (clinical; 400 mg): 2 h
- Cmax (clinical; 425 mg): 2780 ng/mL
- Cmax (clinical; 450 mg): 4100 ng/mL
- Tmax (clinical; 450 mg): 8 h
- Cmax (clinical; 475 mg): 2200 ng/mL
- Tmax (clinical; 475 mg): 4.2 h
- Patients with pain associated with skin toxicity ([3]; 10 of 42 patients): 24%
- Patients with urticaria as dominant feature of rash ([3]; 11 of 42 patients): 26%
- Patients in whom the rash resembled rosacea ([3]; 12 of 42 patients): 29%
- Patients with desquamation as dominant feature of rash ([3]; 16 of 42 patients): 38%
- Patients with a TR who developed it at the initial 150 mg per day dose level ([3]; 19 of 24 patients with TR): 79%
- Patients who developed a target rash (TR) ([3]; 24 of 42 patients, TR = grade 2 tolerable rash requiring minocycline): 57%
- Patients with pruritus associated with skin toxicity ([3]; 28 of 42 patients): 67%
- Patients who developed skin toxicity ([3]; 41 of 42 patients): 98%
- Patients discontinued from the study due to skin toxicity ([3]; 42 patients): No patient
- Initial patients (first stage) who developed a TR ([3]; first stage of the study): 10 of the 11 initial patients
- Patients with a TR who experienced it only after dose escalation ([3]; five of 24 patients with TR): 21%
- Patients who experienced a grade 3 rash ([3]; of 42 patients): Six
- Dosing range above which erlotinib doses could not be increased in most patients ([3]; principally due to intolerable skin toxicity despite supportive measures): 250–300 mg per day
- Patients with a TR who developed it following escalation to 200 mg per day ([3]; three of 24 patients with TR): 13%
- Patients with a TR who developed it following escalation to 225 mg per day ([3]; two of 24 patients with TR): 8%
- Median PFS ([4]; BR.21 study, 95% CI: 1.9–2.9 months, ref Shepherd et al, 2005): 2.2 months
- ORR ([4]; BR.21 study, 95% CI: 6.4–12%, ref Shepherd et al, 2005): 8.9%
- Median survival ([4]; erlotinib-treated patients who did not experience skin toxicity): 3 months
- Median survival ([4]; erlotinib-treated patients with grade 1 skin toxicity): 7 months
- Median survival ([4]; erlotinib-treated patients with grade 2/3 skin toxicity): 11 months
- Erlotinib Tmax [5]: 4.0 h
- Disease control (CR+PR+SD): No. of patients with CR+PR+s.d./total no. of patients ([6]; All patients): 24/42
- Disease control (CR+PR+SD): Response rate (95% CI) ([6]; All patients): 57.1 (41.0, 72.3)
- Objective responses (CR+PR): No. of patients with PR+CR/total no. of patients ([6]; All patients): 5/42
- Objective responses (CR+PR): Response rate (95% CI) ([6]; All patients): 11.9 (4.0, 25.6)
- Disease control (CR+PR+SD): No. of patients with CR+PR+s.d./total no. of patients ([6]; Target rash feasible): 15/24
- Disease control (CR+PR+SD): Response rate (95% CI) ([6]; Target rash feasible): 62.5 (40.6, 81.2)
- Objective responses (CR+PR): No. of patients with PR+CR/total no. of patients ([6]; Target rash feasible): 5/24
- Objective responses (CR+PR): Response rate (95% CI) ([6]; Target rash feasible): 20.8 (7.1, 42.2)
- Disease control (CR+PR+SD): No. of patients with CR+PR+s.d./total no. of patients ([6]; Target rash not feasible): 9/18
- Disease control (CR+PR+SD): Response rate (95% CI) ([6]; Target rash not feasible): 50.0 (26.0, 74.0)
- Objective responses (CR+PR): No. of patients with PR+CR/total no. of patients ([6]; Target rash not feasible): 0/18
- Objective responses (CR+PR): Response rate (95% CI) ([6]; Target rash not feasible): 0.0 (N/A)
- Median progression-free survival (PFS) ([6]; all patients, 95% CI: 1.61–4.14): 2.3 months
- Patients with a partial response (PR) ([6]; five of 42 patients, 95% CI: 4.0–25.6): 12%
- Median time to initial response ([6]; five patients with PR, range, 5–76): 6 weeks
- Patients with stable disease ([6]; nineteen of 42 patients): 45%
- Median PFS ([6]; patients who did not experience a TR, 95% CI: 1.54, 4.14): 1.9 months
- Median PFS ([6]; patients who experienced a TR, 95% CI: 1.61, 6.97): 3.5 months
- Reduction in the risk of disease progression or death ([6]; patients who had TR): 49%
- PFS ([6]; patients with PR as best response, range, 5.2 to 66+): 12 months
- PFS ([6]; patients with SD as best response, range, 1.2–14.0): 4.7 months
- PFS ([6]; patients with progressive disease as best response, range, 1.2–1.9): 1.4 months
